Data on three compounds can be found in patent US6638523B1, “Method of treating ulcers” (Nagase & Company, Ltd., priority 1999, dated 2003).

The subject of test [1] is ulcers developed in the stomach. Put plainly: Ethanol-induced gastric ulcer in rats. In kind it is in vivo, Wistar male rats. The following applies: for ED50: Rattus norvegicus, oral administration 30 min before 1 ml ethanol (99.5%), total ulcer length after 1 h, read-out: ED50 (anti-ulcer action); for anti-ulcer action: oral, carnosic acid 1, 5, 25 mg/kg, carnosol 2.5, 10, 25 mg/kg, ethanol ulcer, FIG. 1 and 2. Here is the method: To Wistar male rats (5 rats per group) of 180-200 g body weight fasted for 24 hours before the start of a test, carnosic acid obtained in Example 1 was orally administered in dose levels of 1, 5 and 25 mg per kg body weight, after suspending it in water. Similarly, carnosol obtained in Example 1 was orally administered in dose levels of 2.5, 10 and 25 mg per kg body weight, after suspending it in water. After 30 minutes of the administration, 1 ml of ethanol (99.5%) was orally administered to each rat. After one hour of the ethanol administration, laparotomy was carried out and the lengths of all ulcers developed in the stomach were measured and added up. Similar measurements were carried out on the rats of the control group which received ethanol without receiving the above compounds and the result obtained was compared with the above results.

Test [2] has the same test system. The following applies: well known anti-ulcer compound, comparison value; cited from earlier work.

One may read the ED50 as the dose that gives a 50% effect, or the effect in half of the subjects. Consider `CC(C)c1cc2c(c(O)c1O)[C@@]13CCCC(C)(C)[C@@H]1C[C@@H]2OC3=O` [carnosol], for which, in test [1], the ED50 came to 9.6 mg/kg and the anti-ulcer action result is given as “potent anti-ulcer action”.

Turning to `NC(N)=Nc1nc(CSCCN/C=N/S(=O)(=O)c2ccc(Br)cc2)cs1` [ebrotidine], the “ED50 (anti-ulcer action), comparison compound” value in test [2] is reported as 26.54 mg/kg.

Regarding `CC(C)c1cc2c(c(O)c1O)[C@@]1(C(=O)O)CCCC(C)(C)[C@@H]1CC2` [carnosic acid], in test [1], the ED50 is 3.1 mg/kg and the anti-ulcer action result is on record as “potent anti-ulcer action”.
